For 26 molecules, IC50 results are on record in EP4763847A1 (Jiangsu Yahong Meditech Co., Ltd., priority 2023, dated 2025).

Like-named read-outs stand apart in the source and are kept apart here.

Assay [1] deals with T1, PRMT5-MTA (Homo sapiens, UniProt O14744). The following applies: PRMT5+MTA enzyme activity inhibition; PRMT5/MET50 protein 1 nM, 5'-deoxy-5'-adenosine 1 µM, SAM 2.5 µM, Histone H4 substrate 5 nM.
Description: (§3) The enzymatic inhibition activity of the compounds against PRMT5-MTA was detected using the AlphaScreen method. A 1× methyltransferase assay buffer IV (Signalchem) was prepared as a dilution solution for each component of the enzymatic reaction. […] The test compounds were added to all wells except the control wells in a 3-fold dilution series of 10 concentration points starting from 1000 nM using a Tecan D300e. After centrifugation at 1000 rpm for 1 minute in a centrifuge, the plate was incubated at 23°C for 15 minutes. Histone H4 substrate at a final concentration of 5 nM was added to the plate at 4 µL per well. After centrifugation at 1000 rpm for 1 minute in a centrifuge, the plate was reacted in an incubator at 23°C for 45 minutes. Anti-Histone H4 (symmetric dimethyl R3) antibody (Abcam) was pre-incubated with 50 µg/mL AlphaScreen Protein A Acceptor beads (PerkinElmer) at room temperature for 10 minutes, and then added to the plate in a volume of 10 µL per well, followed by reaction at room temperature for 1 hour. 10 µL of 50 µg/mL AlphaScreen Streptavidin Donor beads (PerkinElmer) were added to each well, and reacted at room temperature for 1 hour. The signal values in the plate were detected using the Alpha method on an Envision multi-mode plate reader. The IC50 values of the compounds for PRMT5/MET50 enzyme activity inhibition were calculated in Xlfit 5.0 software.
Assay [2] relates to HCT116-WT. Kind of assay: Cell proliferation inhibition (CellTiter Glo), HCT116-WT cells. The following applies: cultured 6 days with compound. In kind it is cell-based. On the procedure:
(§1) Test Example 2: Test of cell proliferation inhibition activity of the compounds
(§2) HCT116-WT (ATCC, CCL-247) and HCT116 MTAP KO (Cobioer Nanjing, CBP75002) cells were seeded into white low-transparency 96-well sterile cell culture plates at a density of 250 cells per well, respectively. The culture medium was McCoy's 5A Medium + 10% FBS. The plates were incubated overnight at 37°C with 5% CO2. The cells were treated with compounds gradiently with an initial concentration of 10000 nM, 4-fold dilution, and 8 concentration points. The last two columns were control wells with only DMSO added. The treated cells were continued to be cultured for 6 days. On the seventh day, 50 µL of CellTiter Glo® reagent was added to each well. After reacting on a shaker at room temperature for 10 minutes, the chemiluminescence signal in the plate was detected using the chemiluminescence detection method on a BIOTEK H1 multi-mode plate reader. […] Table 2: IC50 values of compounds for HCT116 MTAP KO/WT cell growth inhibition
(In general: Cellular ATP, detected with luciferase, serves as a proxy for viable cell number.)

Assay [3] has as its system HCT116 MTAP KO. Kind of assay: Cell proliferation inhibition (CellTiter Glo), HCT116 MTAP KO cells. Type of assay: cell-based. The following applies: cultured 6 days with compound. The method, then: as §1, §2
Assay [4] has as its target T1, PRMT5-MTA. The experiment in a line: biochemical. As to conditions: IC50 (nM), PRMT5+MTA enzyme activity inhibition; PRMT5/MET50 protein 1 nM, 5'-deoxy-5'-adenosine 1 µM, SAM 2.5 µM, Histone H4 substrate 5 nM.
Description: as §3

T1 sequence (O14744 whole entry): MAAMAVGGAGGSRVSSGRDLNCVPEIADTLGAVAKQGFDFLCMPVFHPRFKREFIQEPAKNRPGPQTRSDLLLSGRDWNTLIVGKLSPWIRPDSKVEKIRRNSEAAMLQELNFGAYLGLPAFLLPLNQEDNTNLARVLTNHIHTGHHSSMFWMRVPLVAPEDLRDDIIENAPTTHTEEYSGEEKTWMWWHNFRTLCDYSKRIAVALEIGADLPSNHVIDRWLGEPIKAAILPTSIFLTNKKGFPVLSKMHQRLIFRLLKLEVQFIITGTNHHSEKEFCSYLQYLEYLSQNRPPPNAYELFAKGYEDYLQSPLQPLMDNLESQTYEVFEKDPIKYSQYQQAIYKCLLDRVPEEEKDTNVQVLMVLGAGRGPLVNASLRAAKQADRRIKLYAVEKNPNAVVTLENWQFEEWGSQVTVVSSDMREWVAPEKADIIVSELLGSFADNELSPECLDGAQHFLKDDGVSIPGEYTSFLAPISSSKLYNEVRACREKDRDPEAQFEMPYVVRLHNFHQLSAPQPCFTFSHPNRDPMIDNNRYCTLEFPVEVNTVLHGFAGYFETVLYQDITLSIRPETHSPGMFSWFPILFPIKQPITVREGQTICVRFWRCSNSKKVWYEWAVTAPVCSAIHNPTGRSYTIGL
T1 sequence (Q9BQA1 whole entry partner): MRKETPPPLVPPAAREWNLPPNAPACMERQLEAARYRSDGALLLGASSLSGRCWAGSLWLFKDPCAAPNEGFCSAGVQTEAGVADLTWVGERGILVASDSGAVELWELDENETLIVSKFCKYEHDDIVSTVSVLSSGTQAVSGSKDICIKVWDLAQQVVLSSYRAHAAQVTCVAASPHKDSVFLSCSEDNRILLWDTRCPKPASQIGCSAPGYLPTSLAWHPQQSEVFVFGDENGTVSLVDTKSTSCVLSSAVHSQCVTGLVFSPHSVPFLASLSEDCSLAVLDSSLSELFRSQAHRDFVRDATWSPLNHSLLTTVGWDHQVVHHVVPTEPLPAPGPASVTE

As usually defined, the IC50 is the midpoint of a concentration-inhibition curve. As for “6-((isobutyrylamido(methylamino)methylene)amino)-N-(1-(pyrimidin-2-yl)ethyl)-N-((5 -(trifluoromethyl)pyridin-2-yl)methyl)nicotinamide [Compound 29]”, the IC50 in assay [1] turned out to be 8.2 nM; in assay [2] it was 3730 nM; in assay [3], 590 nM.
For the molecule `CN/C(N)=N\c1ccc(C(=O)N(Cc2ccc(C(F)(F)F)cn2)[C@@H]2CCCc3ccccc32)cn1` [Compound 96, (R,Z)-6-((amino(methylamino)methylene)amino)-N-(1,2,3,4-tetrahydronaphthalen-1-yl) -N-((5-(trifluoromethyl)pyridin-2-yl)methyl)nicotinamide], the IC50 in assay [4] was determined as 3.5 nM; in assay [2] (144 h) it was 366 nM; in assay [3] (Homo sapiens, HCT-116, 144 h), 22 nM.
The like results for `CN/C(N)=N\c1ccc(C(=O)N(Cc2ccc3nn(C)cc3c2)[C@H](C)c2ccccc2F)cn1` [Compound 97, (R,Z)-6-((amino(methylamino)methylene)amino)-N-(1-(2-fluorophenyl)ethyl)-N-((2-methyl-2H-indazol-5-yl)methyl)nicotinamide] were, in that order, 3.1 nM, 5700 nM and 353 nM.
For `CNC(N)=Nc1ccc(C(=O)N(Cc2ccc3cnccc3c2)[C@H](C)c2ccccc2F)cn1` [Compound 98] the same measures were 8.7 nM, 1090 nM and 64 nM.
The like results for `CNC(N)=Nc1ccc(C(=O)N(Cc2ccccc2)[C@H](C)c2ccccc2F)cn1` [Compound 99] were, in that order, 4.6 nM, 3330 nM and 445 nM.
For the molecule `CNC(N)=Nc1ccc(C(=O)N(Cc2ccc(F)c(C)c2)[C@H](C)c2ccccc2F)cn1` [Compound 101], the IC50 amounted to 3.1 nM in assay [4]; 1790 nM in assay [2] (144 h); 352 nM in assay [3] (Homo sapiens, HCT-116, 144 h).
The like results for `CNC(N)=Nc1ccc(C(=O)N(Cc2ccc3c(cnn3C)c2)[C@H](C)c2ccccc2F)cn1` [Compound 102] were, in that order, 2.6 nM, 667 nM and 50 nM.
In the case of `CNC(N)=Nc1ccc(C(=O)N(Cc2cscn2)[C@H](C)c2ccccc2F)cn1` [Compound 104], the IC50 in assay [4] is 5.8 nM; in assay [2] (144 h), above 10000 nM; in assay [3] (Homo sapiens, HCT-116, 144 h), 416 nM.
For `CNC(N)=Nc1ccc(C(=O)N(Cc2ccc3ccsc3c2)[C@H](C)c2ccccc2F)cn1` [Compound 105] the same measures were 5.7 nM, 2230 nM and 263 nM.
Take `CNC(N)=Nc1ccc(C(=O)N(Cc2cccc(Cl)c2)[C@H](C)c2ccccc2F)cn1` [Compound 106]: the IC50 in assay [4] came out at 5.9 nM; in assay [2] (144 h) it was 2890 nM; in assay [3] (Homo sapiens, HCT-116, 144 h), 601 nM.
Turning to `CNC(N)=Nc1ccc(C(=O)N(Cc2ccncc2)[C@H](C)c2ccccc2F)cn1` [Compound 107], the concentration for half-maximal inhibition (IC50) in assay [4] turned out to be 4 nM; in assay [2] (144 h) it was 8230 nM; in assay [3] (Homo sapiens, HCT-116, 144 h), 474 nM.
For `CNC(N)=Nc1ccc(C(=O)N(Cc2ccc(C(F)(F)F)cc2)[C@H](C)c2ccccc2F)cn1` [Compound 108] the same measures were 7.9 nM, 452 nM and 48 nM.
In the case of `CNC(N)=Nc1ccc(C(=O)N(Cc2ccc(C)nc2)[C@H](C)c2ccccc2F)cn1` [Compound 109], the IC50 in assay [4] is 5.8 nM; in assay [2] (144 h), 7720 nM; in assay [3] (Homo sapiens, HCT-116, 144 h), 658 nM.
Turning to `CNC(N)=Nc1ccc(C(=O)N(Cc2cccc(F)c2)[C@H](C)c2ccccc2F)cn1` [Compound 110], the IC50 was 6.2 nM in assay [4]; 3660 nM in assay [2] (144 h); 508 nM in assay [3] (Homo sapiens, HCT-116, 144 h).
For `CNC(N)=Nc1ccc(C(=O)N(Cc2ccccn2)[C@H](C)c2ccccc2F)cn1` [Compound 111] the same measures were 3.7 nM, 6450 nM and 496 nM.
Consider `CNC(N)=Nc1ccc(C(=O)N(Cc2ccc(F)cc2)[C@H](C)c2ccccc2F)cn1` [Compound 112], for which the IC50 in assay [4] was 6.1 nM; in assay [2] (144 h), 2340 nM; in assay [3] (Homo sapiens, HCT-116, 144 h), 304 nM.
The like results for `CNC(N)=Nc1ccc(C(=O)N(Cc2ccc(C(F)(F)F)cn2)N(C)c2ncccn2)cn1` [Compound 113] were, in that order, 3.2 nM, 2650 nM and 49 nM.
As to `CN/C(N)=N\c1ccc(C(=O)N(Cc2ccc(C(F)(F)F)cn2)[C@H]2CCCc3ccccc32)cn1` [Compound 114, (S,Z)-6-((amino(methylamino)methylene)amino)-N-(1,2,3,4-tetrahydronaphthalen-1-yl) -N-((5-(trifluoromethyl)pyridin-2-yl)methyl)nicotinamide], the IC50 is 3.2 nM in assay [4]; 2970 nM in assay [2] (144 h); 612 nM in assay [3] (Homo sapiens, HCT-116, 144 h).
Consider `CNC(N)=Nc1ccc(C(=O)N(Cc2ccc(C(F)(F)F)cn2)C(C)c2ccccc2C(F)(F)F)cn1` (stereo not drawn) [Compound 115], for which the IC50 in assay [4] was found to be 0.9 nM; in assay [2] (144 h) it was 3180 nM; in assay [3] (Homo sapiens, HCT-116, 144 h), 942 nM.
The like results for `NC(=Nc1ccc(C(=O)N(Cc2ccc(C(F)(F)F)cn2)C2CCCc3ccccc32)cn1)NO` (stereo not drawn) [Compound 116] were, in that order, 3.4 nM, 307 nM and 63 nM.
For `NC(=Nc1ccc(C(=O)N(Cc2ccc(C(F)(F)F)cn2)C2CCCc3cccnc32)cn1)NO` (stereo not drawn) [Compound 117] the same measures were 5.7 nM, 115 nM and 21 nM.
For `CN/C(N)=N\c1ccc(C(=O)N(Cc2ccc(C(F)(F)F)cn2)C(C)c2ccc(F)cc2)cn1` (stereo not drawn) [Compound 118, (Z)-6-((amino(methylamino)methylene)amino)-N-(1-(4-fluorophenyl)ethyl)-N-((5-(trifluoromethyl)pyridin-2-yl)methyl)nicotinamide] the same measures were 1.5 nM, 2700 nM and 454 nM.
Regarding `CNC(N)=Nc1ccc(C(=O)N(Cc2ccc(-c3cnn(C)c3)cn2)[C@H](C)c2ccccc2F)cn1` [Compound 129], the IC50 in assay [4] was determined as 5.4 nM; in assay [2] (144 h) it was 2520 nM; in assay [3] (Homo sapiens, HCT-116, 144 h), 233 nM.
The like results for `CN/C(N)=N\c1ccc(C(=O)N(Cc2ccc(-c3ccc(N4CCN(C)CC4)nc3)cn2)[C@H](C)c2ccccc2F)cn1` [Compound 130, (R,Z)-6-((amino(methylamino)methylene)amino)-N-(1-(2-fluorophenyl)ethyl)-N-((6'-(4-methylpiperazin-1-yl)-[3,3'-bipyridin]-6-yl)methyl)nicotinamide] were, in that order, 9.7 nM, 1570 nM and 329 nM.
The like results for `CNC(N)=Nc1ccc(C(=O)N(Cc2ccc(C(F)(F)F)cn2)C2CCCc3cccc(F)c32)cn1` (stereo not drawn) [compound 93] were, in that order, 7.1 nM, 504 nM and 33 nM.
For `CNC(N)=Nc1ccc(C(=O)N(Cc2ccc(C(F)(F)F)cn2)C(C)c2cccc(F)c2)cn1` (stereo not drawn) [compound 119] the same measures were 1.3 nM, 2790 nM and 398 nM.
